This is an account of results in patent US10155750B2, “Amidoethyl azole orexin receptor antagonists” (Merck Sharp & Dohme Corp., priority 2014, dated 2018).

As a reminder, the IC50 is the concentration that inhibits the measured activity by half.

For assay [1], the target named is hOX1R (orexin-1 receptor) (Homo sapiens, UniProt O43613). The assay is described as follows: FLIPR Ca2+ flux assay, hOX1R. Type of assay: cell-based. Particulars: CHO cells expressing the receptor; agonist 70 pM Ala-6,12 human orexin-A. On the technique in general: Calcium assays in cells follow changes in intracellular calcium, usually with a dye or a luminescent sensor.

Assay [2] concerns the target human orexin-2 receptor (Homo sapiens (Human), UniProt O43614). Description: FLIPR Ca2+ flux assay, hOX2R. It is filed as cell-based. Conditions: CHO cells expressing the receptor; agonist 70 pM Ala-6,12 human orexin-A. On the procedure: The utility of the compounds in accordance with the present invention as orexin receptor OX1R and/or OX2R antagonists may be readily determined without undue experimentation by methodology well known in the art, including the “FLIPR Ca^2+ Flux Assay” (Okumura et al., Biochem. Biophys. Res. Comm. 280:976-981, 2001). In a typical experiment the OX1 and OX2 receptor antagonistic activity of the compounds of the present invention was determined in accordance with the following experimental method. For intracellular calcium measurements, Chinese hamster ovary (CHO) cells expressing the rat orexin-1 receptor or the human orexin-2 receptor, are grown in Iscove's modified DMEM containing 2 mM L-glutamine, […], 1% hypoxanthine-thymidine supplement, 100 U/ml penicillin, 100 μg/ml streptomycin and 10% heat-inactivated fetal calf serum (FCS). The cells are seeded at 20,000 cells/well into Becton-Dickinson black 384-well clear bottom sterile plates coated with poly-D-lysine. All reagents were from GIBCO-Invitrogen Corp. The seeded plates are incubated overnight at 37° C. and 5% CO2. Ala-6,12 human orexin-A as the agonist is prepared as a 1 mM stock solution in 1% bovine serum albumin (BSA) and diluted in assay buffer (HBSS containing 20 mM HEPES, 0.1% BSA and 2.5 mM probenecid, pH7.4) for use in the assay at a final concentration of 70 pM. Test compounds are prepared as 10 mM stock solution in DMSO, then diluted in 384-well plates, first in DMSO, then assay buffer. On the day of the assay, cells are washed 3 times with 100 μl assay buffer and then incubated for 60 min (37° C., 5% CO2) in 60 μl assay buffer containing 1 μM Fluo-4AM ester, 0.02% pluronic acid, and 1% BSA. The dye loading solution is then aspirated and cells are washed 3 times with 100 μl assay buffer. 30 μl of that same buffer is left in each well. Within the Fluorescent Imaging Plate Reader (FLIPR, Molecular Devices), test compounds are added to the plate in a volume of 25 μl, incubated for 5 min and finally 25 μl of agonist is added. Fluorescence is measured for each well at 1 second intervals for 5 minutes and the height of each fluorescence peak is compared to the height of the fluorescence peak induced by 70 pM Ala-6,12 orexin-A with buffer in place of antagonist. For each antagonist, IC50 value (the concentration of compound needed to inhibit 50% of the agonist response) is determined. Alternatively, compound potency can be assessed by a radioligand binding assay (described in Bergman et. al. Bioorg. Med. Chem. Lett. 2008, 18, 1425-1430) in which the inhibition constant (Ki) is determined in membranes prepared from CHO cells expressing either the OX1 or OX2 receptor. The intrinsic orexin receptor antagonist activity of a compound which may be used in the present invention may be determined by these assays.

Chain of human orexin-2 receptor (O43614 whole entry): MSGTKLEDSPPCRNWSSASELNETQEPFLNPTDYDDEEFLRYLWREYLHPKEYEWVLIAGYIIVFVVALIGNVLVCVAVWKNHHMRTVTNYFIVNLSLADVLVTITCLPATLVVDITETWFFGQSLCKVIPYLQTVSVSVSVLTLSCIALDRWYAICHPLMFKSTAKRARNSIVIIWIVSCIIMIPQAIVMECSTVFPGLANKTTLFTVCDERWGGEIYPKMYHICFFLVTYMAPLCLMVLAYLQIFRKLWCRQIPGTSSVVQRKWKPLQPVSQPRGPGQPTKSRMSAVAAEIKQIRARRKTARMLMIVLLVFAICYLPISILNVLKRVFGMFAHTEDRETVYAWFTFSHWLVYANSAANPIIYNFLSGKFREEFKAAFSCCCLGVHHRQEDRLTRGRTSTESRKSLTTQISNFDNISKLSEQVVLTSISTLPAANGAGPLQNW

As for `CCN(CCn1ncc(C(C)O)n1)C(=O)c1ccccc1-n1nccn1` (centres unmarked) [Example 3, N-Ethyl-N-(2-(4-(1-hydroxyethyl)-2H-1,2,3-triazol-2-yl)ethyl)-2-(2H-1,2,3-triazol-2-yl)benzamide], the results for the IC50 in assay [1] and in assay [2] were more than 10000 nM and 373 nM, respectively.
Take `CCN(CCn1nc(C)c(C(C)(C)O)n1)C(=O)c1ccccc1OCC(F)F` [Example 35, 2-(2,2-difluoroethoxy)-N-ethyl-N-(2-(4-(2-hydroxypropan-2-yl)-5-methyl-2H-1,2,3-triazol-2-yl)ethyl)benzamide]: the IC50 in assay [1] was more than 10000 nM; in assay [2], 35 nM.
Turning to `CCN(CCn1ncc(C(C)(C)O)n1)C(=O)c1ccccc1OC(F)(F)F` [Example 12, N-ethyl-N-(2-(4-(2-hydroxypropan-2-yl)-2H-1,2,3-triazol-2-yl)ethyl)-2-(trifluoromethoxy)benzamide], the values for the IC50 in assay [1] and in assay [2] were more than 10000 nM and 247 nM, respectively.
With `CCN(CCn1ncc(C(C)(C)O)n1)C(=O)c1ccccc1OC(C)C` [Example 18, N-ethyl-N-(2-(4-(2-hydroxypropan-2-yl)-2H-1,2,3-triazol-2-yl)ethyl)-2-isopropoxybenzamide], the figures for the IC50 in assay [1] and in assay [2] were more than 10000 nM and 145 nM, respectively.
The corresponding values for `CCN(CCn1nc(C)c(C(C)(C)O)n1)C(=O)c1ccc(OC)nc1C1CC1` [Example 39, 2-cyclopropyl-N-ethyl-N-(2-(4-(2-hydroxypropan-2-yl)-5-methyl-2H-1,2,3-triazol-2-yl)ethyl)-6-methoxynicotinamide] are 2840 nM and 14 nM.
For `CCN(CCn1nc(C)c(C(C)(C)O)n1)C(=O)c1ccccc1CC(F)(F)F` [Example 34, N-ethyl-N-(2-(4-(2-hydroxypropan-2-yl)-5-methyl-2H-1,2,3-triazol-2-yl)ethyl)-2-(2,2,2-trifluoroethyl) benzamide], the values for the IC50 in assay [1] and in assay [2] were more than 10000 nM and 37 nM, respectively.
The corresponding values for `CCN(CCn1ncc(C(C)(O)CC)n1)C(=O)c1ccccc1-n1nccn1` (centres unmarked) [Example 2, N-Ethyl-N-(2-(4-(2-hydroxybutan-2-yl)-2H-1,2,3-triazol-2-yl)ethyl)-2-(2H-1,2,3-triazol-2-yl)benzamide] are more than 10000 nM and 65 nM.
The corresponding values for `CCN(CCn1nc(C)c(C(C)(C)O)n1)C(=O)c1cccnc1CC(F)(F)F` [Example 36, N-ethyl-N-(2-(4-(2-hydroxypropan-2-yl)-5-methyl-2H-1,2,3-triazol-2-yl)ethyl)-2-(2,2,2-trifluoroethyl) nicotinamide] are more than 10000 nM and 270 nM.
The corresponding values for `CCN(CCn1ncc(C(C)(C)O)n1)C(=O)c1ccccc1SC(F)(F)F` [Example 11, N-ethyl-N-(2-(4-(2-hydroxypropan-2-yl)-2H-1,2,3-triazol-2-yl)ethyl)-2-((trifluoromethyl)thio)benzamide] are more than 10000 nM and 34 nM.
Consider `CCOc1ccccc1C(=O)N(CC)CCn1nc(C)c(C(C)(C)O)n1` [Example 27, 2-ethoxy-N-ethyl-N-(2-(4-(2-hydroxypropan-2-yl)-5-methyl-2H-1,2,3-triazol-2-yl)ethyl)benzamide], for which the IC50 in assay [1] is more than 10000 nM; in assay [2], 27 nM.
For `CCN(CCn1cc(C(C)(C)O)cn1)C(=O)c1ccccc1-n1nccn1` [Example 49, N-Ethyl-N-{2-[4-(1-hydroxy-1-methylethyl)-1H-pyrazol-1-yl]ethyl}-2-(2H-1,2,3-triazol-2-yl)benzamide] the same measures were more than 10000 nM and 35 nM.
The corresponding values for `CCN(CCn1nc(C)c(C(C)(C)O)n1)C(=O)c1ccccc1CC(F)F` [Example 37, 2-(2,2-difluoroethyl)-N-ethyl-N-(2-(4-(2-hydroxypropan-2-yl)-5-methyl-2H-1,2,3-triazol-2-yl)ethyl)benzamide] are more than 10000 nM and 10 nM.
For `CCOc1ncccc1C(=O)N(CC)CCn1nc(C)c(C(C)(C)O)n1` [Example 23, 2-ethoxy-N-ethyl-N-(2-(4-(2-hydroxypropan-2-yl)-5-methyl-2H-1,2,3-triazol-2-yl)ethyl)nicotinamide], the IC50 in assay [1] is more than 10000 nM; in assay [2], 58 nM.
The corresponding values for `CCN(CCn1nc(C)c(C(C)(C)O)n1)C(=O)c1cccnc1OCC(F)(F)F` [Example 21, N-Ethyl-N-(2-(4-(2-hydroxypropan-2-yl)-5-methyl-2H-1,2,3-triazol-2-yl)ethyl)-2-(2,2,2-trifluoroethoxy)nicotinamide] are more than 10000 nM and 21 nM.
For `CCN(CCn1nc(C)c(C(C)(C)O)n1)C(=O)c1cccnc1-n1cccn1` [Example 48, N-ethyl-N-(2-(4-(2-hydroxypropan-2-yl)-5-methyl-2H-1,2,3-triazol-2-yl)ethyl)-2-(1H-pyrazol-1-yl)nicotinamide] the same measures were 7520 nM and 13 nM.
For the compound `CCN(CCn1nc(C)c(C(C)(C)O)n1)C(=O)c1ccccc1OC(F)(F)F` [Example 26], the values for the concentration for half-maximal inhibition (IC50) in assay [1] and in assay [2] were more than 10000 nM and 19 nM, respectively.
In the case of `CCN(CCn1nc(C)c(C(C)(C)O)n1)C(=O)c1ccc(F)cc1-n1nccn1` [Example 30, N-ethyl-4-fluoro-N-(2-(4-(2-hydroxypropan-2-yl)-5-methyl-2H-1,2,3-triazol-2-yl)ethyl)-2-(2H-1,2,3-triazol-2-yl)benzamide], the values for the IC50 in assay [1] and in assay [2] were 5540 nM and 10 nM, respectively.
The corresponding values for `CCCc1ccccc1C(=O)N(CC)CCn1nc(C)c(C(C)(C)O)n1` [Example 32, N-ethyl-N-(2-(4-(2-hydroxypropan-2-yl)-5-methyl-2H-1,2,3-triazol-2-yl)ethyl)-2-propylbenzamide] are 2210 nM and 32 nM.
Turning to `CCN(CCn1nc(C)c(C(C)(C)O)n1)C(=O)c1nccnc1-c1ccccn1` [Example 45, N-ethyl-N-(2-(4-(2-hydroxypropan-2-yl)-5-methyl-2H-1,2,3-triazol-2-yl)ethyl)-3-(pyridin-2-yl)pyrazine-2-carboxamide], the IC50 in assay [1] was more than 10000 nM; in assay [2] it was 87 nM.
On to `CCN(CCn1ncc(C(C)(C)O)n1)C(=O)c1ccccc1N1CCCC1` [Example 5, N-ethyl-N-(2-(4-(2-hydroxypropan-2-yl)-2H-1,2,3-triazol-2-yl)ethyl)-2-(pyrrolidin-1-yl)benzamide], for which the IC50 was more than 10000 nM in assay [1] and 41 nM in assay [2].
The corresponding values for `CCN(CCn1nc(C)c(C(C)(C)O)n1)C(=O)c1ccccc1-n1nccn1` [Example 20, N-Ethyl-N-(2-(4-(2-hydroxypropan-2-yl)-5-methyl-2H-1,2,3-triazol-2-yl)ethyl)-2-(2H-1,2,3-triazol-2-yl)benzamide] are 2860 nM and 12 nM.
For `CCN(CCn1nc(C)c(C(C)(C)O)n1)C(=O)c1ncccc1-n1nccn1` [Example 43, N-ethyl-N-(2-(4-(2-hydroxypropan-2-yl)-5-methyl-2H-1,2,3-triazol-2-yl)ethyl)-3-(2H-1,2,3-triazol-2-yl)picolinamide], the IC50 in assay [1] was more than 10000 nM; in assay [2] it was 180 nM.
For `CCN(CCn1ncc(C(C)(C)O)n1)C(=O)c1ccccc1-n1nccn1` [Example 1, N-Ethyl-N-(2-(4-(2-hydroxypropan-2-yl)-2H-1,2,3-triazol-2-yl)ethyl)-2-(2H-1,2,3-triazol-2-yl)benzamide] the same measures were more than 10000 nM and 58 nM.
The corresponding values for `CCN(CCn1nc(C)c(C(C)(C)O)n1)C(=O)c1cccnc1OC(C)C` [Example 22, N-ethyl-N-(2-(4-(2-hydroxypropan-2-yl)-5-methyl-2H-1,2,3-triazol-2-yl)ethyl)-2-isopropoxynicotinamide] are more than 10000 nM and 61 nM.
Consider `CCN(CCn1nc(C)c(C(C)(C)O)n1)C(=O)c1ccccc1C1CCC1` [Example 40, 2-cyclobutyl-N-ethyl-N-(2-(4-(2-hydroxypropan-2-yl)-5-methyl-2H-1,2,3-triazol-2-yl)ethyl)benzamide], for which the IC50 worked out at 1170 nM in assay [1] and 13 nM in assay [2].
